In patent US20020051978A1, “Methods and compositions for the identification, assessment, prevention and therapy of human cancers” (priority 2000, published 2002):
Values joined by “and” are separate entries in the source; they are usually repeats but may differ in a detail not shown here. Identical values can stand only once. Like-named read-outs stand apart in the source and are kept apart here.

Test system: 60 cancer cell lines (NCI 60 cancer cell line series)
Assay: NCI-DTP in vitro cancer screen, sulforhodamine B (SRB) growth inhibition, 48 hour exposure
Type: cell-based, human
Experimental: Cancer Cell Line Preparation. Sixty cancer cell lines were obtained from the National Cancer Institute Developmental Therapeutics Program (NCI-DTP). Procedures for growing cells and testing compounds have been described previously (Scudiero et al., Cancer Res. 1988, 48:4827-4833; Stinson et al., Anticancer Res.; Myers et al., Electrophoresis 1997, 18:647-653). Cells are plated on day 0 at a density individualized for each cell line so that they will generally be sub-confluent at the end of the assay period. On day 1, a compound is added in the format for a duplicate-well, 5-dose, ten-fold interval dose response study.
No-drug, no-cell and no-growth controls are included. On day 3 the cells are processed for staining with sulforhodamine B (SRB), which reflects the amount of cell mass present at the end of a 48 hour exposure to the test agent. From dose response curves based on the SRB data, various parameters can be determined. The one used in the present study is the G15o, defined as the concentration of compound required to inhibit growth of the cell line by 50%. More precisely, the quantity used in the calculation to be described is the potency measure -log{GI50}.
Activity database (A). Table IA, consisting of the growth inhibition (GI5o) values for the 60 cell lines and 24 compounds, was created from the NCI-DTP in vitro cancer screen database. This subset of compounds was selected from the larger 23,000 compound database available from the DTP. The compounds were selected on the basis of their known mechanism of action and chemical structure. The average potency—log{GI50} was extracted from the comma-delimited text files available through the Web at http://www.nci.nih.gov/intra/lmp/jnwbio.htmrl. Subsequently, these log{GI5o} values were inspected manually and classified as indicating either Low, Medium or High sensitivity to each compound.

For Nc1ccn([C@@H]2O[C@H](CO)[C@@H](O)[C@@H]2O)c(=O)n1 [AraC], the “1 # of Low” value was 17, the “2 # of Medium” value was 33 and the “3 # of High” value was 10. The “classification of cell line as Low(1), Medium(2) or High(3) sensitivity to compound” value (“classification of cell line” for short) was 2 and 3 and 1, the “sensitivity class NSCLC NCI-H23(I) CL1001” value was 3 and the “sensitivity class NSCLC NCI-H332M CL1017” value was 2. The “sensitivity class NSCLC NCI-H460 CL1021” value was 3, the “sensitivity class NSCLC NCI-H522 CL1003” value was 2 and the “sensitivity class Ovarian IGROV1 CL6010” value was 1. The “sensitivity class Ovarian OVCAR-3 CL6001” value was 1, the “sensitivity class Ovarian OVCAR-4 CL6002” value was 1 and the “sensitivity class Ovarian OVCAR-5 CL6003” value was 2. For the same molecule, the “sensitivity class Ovarian OVCAR-8 CL6005” value was 2, the “sensitivity class Ovarian SK-OV-3 CL6011” value was 2 and the “sensitivity class Prostate DU-145 CL11003” value was 1. The “sensitivity class Prostate PC-3(I) CL11001” value was 2, the “sensitivity class Renal 786-O CL9018” value was 2 and the “sensitivity class Renal A498 CL9013” value was 2. For the same molecule, the “sensitivity class Renal ACHN CL9023” value was 2, the “sensitivity class Renal CAKI-1 CL9015” value was 2 and the “sensitivity class Renal RXF-393 CL9016” value was 2. For the same molecule, the “sensitivity class Renal SN12C CL9008” value was 2, the “sensitivity class Renal TK10 CL9024” value was 1 and the “sensitivity class Renal UO-31 CL9004” value was 2. The “sensitivity class of the cell line to the compound (1 Low, 2 Medium, 3 High)” value was 2 and 1 and 3.
O=NN(CCCl)C(=O)NCCCl [BCNU] was tested, and the “1 # of Low” value was 13, the “2 # of Medium” value was 37 and the “3 # of High” value was 10. The “sensitivity class NSCLC NCI-H23(I) CL1001” value was 2, the “sensitivity class NSCLC NCI-H332M CL1017” value was 1 and the “sensitivity class NSCLC NCI-H460 CL1021” value was 2. The “sensitivity class NSCLC NCI-H522 CL1003” value was 3, the “sensitivity class Ovarian IGROV1 CL6010” value was 2 and the “sensitivity class Ovarian OVCAR-3 CL6001” value was 2. The “sensitivity class Ovarian OVCAR-4 CL6002” value was 2, the “sensitivity class Ovarian OVCAR-5 CL6003” value was 1 and the “sensitivity class Ovarian OVCAR-8 CL6005” value was 2. The “sensitivity class Ovarian SK-OV-3 CL6011” value was 1, the “sensitivity class Prostate DU-145 CL11003” value was 1 and the “sensitivity class Prostate PC-3(I) CL11001” value was 2. For the same molecule, the “sensitivity class Renal 786-O CL9018” value was 3, the “sensitivity class Renal A498 CL9013” value was 1 and the “sensitivity class Renal ACHN CL9023” value was 2. The “sensitivity class Renal CAKI-1 CL9015” value was 2, the “sensitivity class Renal RXF-393 CL9016” value was 2 and the “sensitivity class Renal SN12C CL9008” value was 2. The “sensitivity class Renal TK10 CL9024” value was 2 and the “sensitivity class Renal UO-31 CL9004” value was 1.
For CC(=O)O[C@H]1C(=O)[C@@]2(C)[C@H]([C@H](OC(=O)c3ccccc3)[C@]3(O)C[C@H](OC(=O)[C@H](O)[C@@H](NC(=O)c4ccccc4)c4ccccc4)C(C)=C1C3(C)C)[C@]1(OC(C)=O)CO[C@@H]1C[C@@H]2O [TAXOL, paclitaxel, reference compound], the “classification of cell line” value was 2 and 1 and 3, the “sensitivity class NSCLC NCI-H23(I) CL1001” value was 2 and the “sensitivity class NSCLC NCI-H332M CL1017” value was 2. For the same molecule, the “sensitivity class Ovarian IGROV1 CL6010” value was 2, the “sensitivity class Ovarian OVCAR-4 CL6002” value was 1 and the “sensitivity class Ovarian OVCAR-8 CL6005” value was 2. For the same molecule, the “sensitivity class Ovarian SK-OV-3 CL6011” value was 2, the “sensitivity class Prostate DU-145 CL11003” value was 2 and the “sensitivity class Prostate PC-3(I) CL11001” value was 2. The “sensitivity class Renal 786-O CL9018” value was 2, the “sensitivity class Renal ACHN CL9023” value was 1 and the “sensitivity class Renal CAKI-1 CL9015” value was 1. The “sensitivity class Renal RXF-393 CL9016” value was 2, the “sensitivity class Renal SN12C CL9008” value was 2 and the “sensitivity class Renal UO-31 CL9004” value was 1. For the same molecule, the “sensitivity class of the cell line to the compound (1 Low, 2 Medium, 3 High)” value was 1 and 3 and 2.
For COc1cccc2c1C(=O)c1c(O)c3c(c(O)c1C2=O)C[C@@](O)(C(=O)CO)C[C@@H]3O[C@H]1C[C@H](N)C[C@H](C)O1 [Deoxydoxorubicin], the “classification of cell line” value (Breast BT-549 (CL5013)) was 2, the “classification of cell line” value (Breast MCF7/ADRr (CL5002)) was 1 and the “classification of cell line” value (Breast MDA-N CL5012) was 2. For the same molecule, the “classification of cell line” value (CNS SF-268 CL12014) was 2, the “classification of cell line” value (CNS SF-295 CL12015) was 2 and the “classification of cell line” value (CNS SF-539 CL12016) was 2. For the same molecule, the “classification of cell line” value (CNS SNB-19 (CL12002)) was 2, the “classification of cell line” value (CNS SNB-75(I) CL12005) was 2 and the “classification of cell line” value (CNS U251(I) CL12009) was 2. For the same molecule, the “classification of cell line” value (Colon COLO-250 CL4010) was 2, the “classification of cell line” value (Colon HCT-15 CL4015) was 1 and the “classification of cell line” value (Colon HT29(I) CL4001) was 2. For the same molecule, the “classification of cell line” value (Colon KM12 (CL4017)) was 2, the “classification of cell line” value (Leukemia CCRF-CEM(I) (CL7003)) was 2 and the “classification of cell line” value (Leukemia K562(I) CL7005) was 2. The “classification of cell line” value (Leukemia RPMI-8226(I) (CL7010)) was 2, the “classification of cell line” value (Leukemia SR CL7019) was 3 and the “classification of cell line” value (Melanoma LOX IMVI CL10001) was 2. The “classification of cell line” value (Melanoma M14 (CL10014)) was 2, the “classification of cell line” value (Melanoma MALME-3M CL10002) was 2 and the “sensitivity class NSCLC NCI-H23(I) CL1001” value (cell line NSCLC NCI-H23(I), CL1001) was 2. For the same molecule, the “sensitivity class NSCLC NCI-H522 CL1003” value (cell line NSCLC NCI-H522, CL1003) was 2, the “sensitivity class Ovarian IGROV1 CL6010” value (cell line Ovarian IGROV1, CL6010) was 2 and the “sensitivity class Ovarian OVCAR-3 CL6001” value (cell line Ovarian OVCAR-3, CL6001) was 2. The “sensitivity class Ovarian OVCAR-4 CL6002” value (cell line Ovarian OVCAR-4, CL6002) was 2, the “sensitivity class Ovarian OVCAR-8 CL6005” value (cell line Ovarian OVCAR-8, CL6005) was 2 and the “sensitivity class Ovarian SK-OV-3 CL6011” value (cell line Ovarian SK-OV-3, CL6011) was 2. For the same molecule, the “sensitivity class Prostate DU-145 CL11003” value (cell line Prostate DU-145, CL11003) was 2, the “sensitivity class Prostate PC-3(I) CL11001” value (cell line Prostate PC-3(I), CL11001) was 2 and the “sensitivity class Renal A498 CL9013” value (cell line Renal A498, CL9013) was 2. The “sensitivity class Renal SN12C CL9008” value (cell line Renal SN12C, CL9008) was 2, the “sensitivity class Renal TK10 CL9024” value (cell line Renal TK10, CL9024) was 1 and the “sensitivity class Renal UO-31 CL9004” value (cell line Renal UO-31, CL9004) was 1. The “3 # of High” value (number of the 60 cell lines classified High (3) sensitivity) was 7.
